Article PMC12670313 (ACS Central Science, 2025)
Entries after “also recorded” stand apart in the source; their conditions may differ. Where two headings read alike, the source gives them in different places.

Tests used:
[1] = tested on: base pair RNA (UU internal loops replaced with AU base pairs); test: 1D imino proton NMR with base pair control RNA; type: binding; conditions: 50 µM RNA, 100 µM compound
Procedure: NMR spectra were recorded on a 700 MHz Bruker Avance III spectrometer equipped with a cryogenic probe. RNAs (r(GACC-UGCU-GGU-GAAA-ACC-UGC-UGG-UC) where the underlined Us indicate the internal loop nucleotides and bold indicate a GNRA hairpin) and (r(GACC-AGCU-GGU-GAAA-ACCA-GCU-GGUC) where UU internal loops were replaced with AU base pairs) were purchased from Dharmacon, HPLC purified, deprotected and desalted. The RNA (50 μM) was dissolved in NMR Buffer (5 mM KH2PO4/K2HPO4, 0.25 mM EDTA, pH 6.0) or NMR Buffer supplemented with 50 mM NaCl and reannealed by heating to 95 °C for 3 min, and then slowly cooling the sample to room temperature before adding to Shigemi NMR tubes (Shigemi, Inc.).
1D ^1H NMR spectra of exchangeable (imino) protons were acquired in 5% D2O and 95% H2O at 9 °C using 50 μM of RNA in the absence of compound. Compounds were then dissolved in D6-DMSO and added to the RNA sample to achieve a final concentration of 100 μM (1:2 RNA:compound). The chemical shifts were referenced to the residual solvent peaks of D6-DMSO, which served as the internal calibration standard. NMR spectra were processed in Topspin 4.0.6.

[2] = molecular target: r(CUG)2; test: Fluorescence binding assay with r(CUG) repeat RNA; conditions: A6 100 nM titrated with RNA; read-out: dissociation constant (Kd)
Procedure: (§1) Binding assays employed the same RNA used in NMR studies (see “NMR Spectroscopy”). All binding experiments were performed in 1× TR-FRET Assay Buffer lacking Tween-20 on black 384-well nonbinding microplates (Greiner. catalog #781900) with a total volume of 10 μL per well. A 100 nM solution of A6 (the fluorescent probe) was prepared in the same buffer and increasing concentrations of the RNA were then titrated into the A6 solution. After a 20 min incubation at room temperature, fluorescence was measured by a Spectra Max M5 plate reader using an excitation wavelength of 320 nm and an emission wavelength of 480 nm. To confirm specificity, parallel measurements were performed with a fully paired RNA construct as a negative control, where no significant change in fluorescence was observed. The change in fluorescence signal as a function of RNA concentration was fitted to a standard ligand binding for one site saturation 6 Fobs=F0+Fmax−F0/1+(Kd/[RNA])^n where F obs is the observed fluorescence at each RNA concentration, F 0 and F max are the fluorescence intensities of free and fully bound RNA, K d is the dissociation constant, and n is the Hill coefficient.

[3] = tested on: fully paired RNA; test: Fluorescence binding assay with fully paired RNA; conditions: A6 100 nM titrated with RNA
Procedure: as §1

[4] = tested on: r(CUG)2, NMR construct with two 1 × 1 UU internal loops (RNA, repeat) GACCUGCUGGUGAAAACCUGCUGGUC; test: fluorescence titration of A6 with RNA; conditions: 110 mM KCl, 10 mM NaCl, 2 mM MgCl2, 2 mM CaCl2; 20 mM HEPES pH 7.5, 5 mM DTT, 0.1% BSA, room temperature; 100 nM A6; Hill fit
[5] = tested on: fully paired RNA (UU internal loops replaced with AU pairs) (RNA, hairpin) GACCAGCUGGUGAAAACCAGCUGGUC; test: fluorescence titration of A6 with RNA; conditions: 110 mM KCl, 10 mM NaCl, 2 mM MgCl2, 2 mM CaCl2; 20 mM HEPES pH 7.5, 5 mM DTT, 0.1% BSA, room temperature; 100 nM A6
[6] = tested on: WT myotubes; test: Viability of WT myotubes; type: cell-based, human; conditions: 50 µM
[7] = molecular target: T1, MBNL1 protein (Homo sapiens, UniProt Q9NR56); test: Differential scanning fluorimetry with MBNL1 protein (SYPRO Orange); type: binding; conditions: MBNL1 10 μM
T1 sequence (Q9NR56 1-388): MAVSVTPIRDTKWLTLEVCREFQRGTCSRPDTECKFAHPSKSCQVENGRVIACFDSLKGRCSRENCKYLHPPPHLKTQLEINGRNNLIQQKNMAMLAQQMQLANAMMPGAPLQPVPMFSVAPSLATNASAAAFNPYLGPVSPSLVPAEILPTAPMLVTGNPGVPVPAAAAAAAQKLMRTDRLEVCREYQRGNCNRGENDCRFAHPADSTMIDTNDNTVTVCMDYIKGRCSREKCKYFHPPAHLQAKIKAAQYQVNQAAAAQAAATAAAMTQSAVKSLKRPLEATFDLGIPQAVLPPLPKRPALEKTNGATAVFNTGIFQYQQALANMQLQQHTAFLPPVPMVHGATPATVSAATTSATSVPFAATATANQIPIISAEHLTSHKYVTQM
Procedure: All experiments were performed using a QuantStudio 5, 384-well Block Real-Time PCR System (Applied Biosystems). Melting curve analyses were conducted using a temperature range from 20 to 95 °C, a ramp rate of 0.01 °C/s, and 75 acquisitions per °C. Melting temperatures (T m) were determined as the peak of the negative first derivative of the fluorescence curve. Each condition was measured in triplicate, and ΔT m values were calculated relative to vehicle control. The FAM-r(CUG)10-BHQ (FAM-CCGC-UGCU-GCUG-CUGC-UGCU-GCUG-CUGC-UGCU-GCGG-BHQ) oligonucleotide was purchased from Dharmacon (HPLC purified). Briefly, 500 nM FAM-r(CUG)10-BHQ was folded by heating at 95 °C for 2 min in 20 mM NaH2PO4/Na2HPO4 buffer, pH 7.4 and then snap cooling on ice for at least 10 min. The folded RNA was incubated with test compounds at the indicated concentrations for 30 min at room temperature. In the melting curve method, fluorescence intensity was monitored using the FAM filter channel.
DSF experiments to assess compound–MBNL1 interactions were performed using SYPRO Orange Dye (Invitrogen, catalog #S6651). […] Samples (10 μL) were transferred to a 384-well PCR plate, and fluorescence intensity as a function of temperature was monitored using the TAMRA filter channel.

[8] = tested on: r(CUG)2, NMR construct with two 1 × 1 UU internal loops (RNA, repeat) GACCUGCUGGUGAAAACCUGCUGGUC; conditions: RNA named only as r(CUG) repeats; binding assays used the NMR RNA
[9] = molecular target: r(CUG) repeats; test: RNA affinity in vitro (method not given); type: binding

## COc1ccc(CCNC(=O)c2cc3c(N4CCCC4)nc(C)cn3n2)cc1OC [A6]
[1]
  binding to base pair RNA (1D imino proton spectra): does not bind
[2]
  Kd: 17 ± 2 µM
[3]
  binding to fully paired RNA: no measurable binding affinity; also recorded: no significant binding
[4]
  Kd: 17 ± 2 µM
[5]
  binding: no

## Cc1cn2nc(C(=O)NCCc3ccccc3)cc2c(N2CCCC2)n1 [A5]
[6]
  toxicity in wild-type cells: caused toxicity

## Cc1ccc(CNC(=O)c2cc3c(N4CCCC4)nc(C)cn3n2)cc1 [A1]
[7]
  ΔTm at 100 µM: 1 °C

## Cc1ccc(CNC(=O)c2cc3c(N4CCSCC4)nc(C)cn3n2)cc1 [B1]
[8]
  Kd: > 50 µM
[9]
  Kd: > 50 µM
